Here are results for one compound from US10184115B2, “Mutated cellobiose dehydrogenase with increased substrate specificity” (DIRECTSENS GMBH, priority 2012, dated 2019).

The target in the experiment is T1, Myriococcum thermophilum cellobiose dehydrogenase (CDH, SEQ ID NO: 1) variant W316R (Thermothelomyces myriococcoides, UniProt A9XK88, W316R).
T1 sequence (A9XK88 22-828 W316R): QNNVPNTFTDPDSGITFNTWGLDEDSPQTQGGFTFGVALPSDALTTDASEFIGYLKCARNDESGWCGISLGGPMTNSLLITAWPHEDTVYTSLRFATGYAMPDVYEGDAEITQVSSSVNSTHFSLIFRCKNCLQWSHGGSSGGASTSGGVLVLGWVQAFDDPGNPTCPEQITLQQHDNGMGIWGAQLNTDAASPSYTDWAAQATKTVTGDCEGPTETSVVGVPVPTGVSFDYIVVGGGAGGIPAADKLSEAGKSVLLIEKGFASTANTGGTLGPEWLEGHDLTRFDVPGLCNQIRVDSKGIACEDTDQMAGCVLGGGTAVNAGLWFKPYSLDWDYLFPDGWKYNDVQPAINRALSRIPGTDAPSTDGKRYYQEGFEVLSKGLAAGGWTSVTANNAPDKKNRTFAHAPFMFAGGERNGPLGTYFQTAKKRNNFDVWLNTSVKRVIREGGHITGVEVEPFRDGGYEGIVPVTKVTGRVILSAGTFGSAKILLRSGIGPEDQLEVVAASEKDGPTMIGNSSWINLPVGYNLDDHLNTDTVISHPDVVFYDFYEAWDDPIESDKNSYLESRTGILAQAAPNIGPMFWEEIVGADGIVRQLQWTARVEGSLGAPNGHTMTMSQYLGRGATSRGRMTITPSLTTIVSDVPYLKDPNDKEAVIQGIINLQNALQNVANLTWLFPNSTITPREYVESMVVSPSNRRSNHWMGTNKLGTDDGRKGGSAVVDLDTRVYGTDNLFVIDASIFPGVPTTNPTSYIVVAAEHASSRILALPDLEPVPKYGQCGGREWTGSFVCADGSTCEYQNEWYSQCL
As to the kind of experiment: Steady-state kinetics, DCIP assay: M. thermophilum CDH W316R. It is filed as biochemical. The following applies: apparent, pH 4.5, 30° C. The procedure:
Enzyme activity was assayed at 30° C. using either the DCIP (Karapetyan et al., 2005 Journal of Biotechnology 121: 34-48) or cytochrome c (Canevascini et al., 1991, European Journal of Biochemistry 198: 43-52) as electron acceptor. […] Stock solutions of carbohydrates used for kinetic measurements were prepared in the respective buffer and allowed to stand overnight for mutarotation, while stock solutions of electron acceptors were prepared in water and immediately used. The reaction stoichiometry is 1 for the two-electron acceptor DCIP (1 mole of DCIP reduced per mole of carbohydrate oxidized), but 2 for the one-electron acceptor cytochrome c. Kinetic constants were calculated by fitting the observed data to the Henri-Michaelis-Menten equation or to the adapted model for substrate inhibition using nonlinear least-squares regression and the program SigmaPlot (Systat Software, San Jose, Calif., USA). […]
Recombinant wild-type CDH as well as variants were produced in 1 L baffled flasks. […] Increase in activity was monitored using the DCIP and the cytochrome c enzyme assays. […]
The sample was loaded on a 20 mL PHE Sepharose FF column (HR26/20) equilibrated with 50 mM Na-acetate buffer pH 5.5 containing 20% ammonium sulfate. […] Fractions were tested for CDH activity and pooled according to the highest Reinheitszahl (RZ, calculated from the absorbance ratio 420 nm/280 nm). […]

SMILES strings stand for the structures.

Broadly, the kcat/KM is the second-order rate constant that governs catalysis at low substrate concentration. As usually defined, the kcat is the maximal rate divided by the concentration of active sites. Take `OC[C@H]1O[C@H](O[C@H]2[C@H](O)[C@@H](O)C(O)O[C@@H]2CO)[C@H](O)[C@@H](O)[C@@H]1O` (some centres unmarked) [Maltose, maltose]: the kcat/KM was found to be 0.09 M⁻¹ s⁻¹. Moreover, the kcat (~ values only estimated by non linear regression) was 0.12 s⁻¹.
